The source of these data is ChEMBL document CHEMBL1201862, “PubChem BioAssay data set” (2004).

The nature of test [1]: growth suppression of beta-catenin-knockout colon cells, dose response, cell-based, HCT116, human colon tumor (AID 1045).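 Also: HCT116 colon tumor cells with beta catenin knocked out; cells exposed to compound for 60 hours.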 Type of test: functional.
Test [2] is described as follows: growth suppression of PTEN-null colon cells, dose response, cell-based, HCT116 PTEN knockout (AID 1047).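 Also: HCT116 colon tumor cells with PTEN knocked out; cells exposed to compound for 60 hours before readout; potency for loss of cell viability measured by luminescence.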 Type of test: functional.
Test [3] in a line: cytotoxicity in KRAS-transformed pancreatic duct cells, primary screen, cell-based, fluorescence, HTS (AID 431).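 Also: cell line used: HPDE-C7K.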 Type of test: functional. Conditions: Homo sapiens.
The nature of test [4]: cytotoxicity in HPDE-C7 cells, cell-based, fluorescence, HTS (AID 430). Format: functional. The settings on record: Homo sapiens.
The next test deals with Estrogen receptor beta (Homo sapiens, UniProt Q92731).
Test [5] addresses DNA dC->dU-editing enzyme APOBEC-3A (Homo sapiens, UniProt P31941). Nature of the test: APOBEC3A DNA deaminase inhibitors, dose response, biochemical (AID 504722). Type of test: functional.
The target of test [6] is DNA dC->dU-editing enzyme APOBEC-3G (Homo sapiens, UniProt Q9HC16). In words: Dose Response confirmation of small molecule APOBEC3G DNA Deaminase Inhibitors via a fluorescence-based single-stranded DNA deaminase assay. [Related pubchem assays (depositor defined):AID493012, AID493028]. Type of test: functional.
In a further test the target is T1, Coagulation factor XII (Homo sapiens, UniProt P00748).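 Also: activated factor XIIa alpha cleaving a fluorogenic AMC peptide substrate; inhibitor potency from loss of enzyme activity.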
T1 sequence (P00748 whole entry): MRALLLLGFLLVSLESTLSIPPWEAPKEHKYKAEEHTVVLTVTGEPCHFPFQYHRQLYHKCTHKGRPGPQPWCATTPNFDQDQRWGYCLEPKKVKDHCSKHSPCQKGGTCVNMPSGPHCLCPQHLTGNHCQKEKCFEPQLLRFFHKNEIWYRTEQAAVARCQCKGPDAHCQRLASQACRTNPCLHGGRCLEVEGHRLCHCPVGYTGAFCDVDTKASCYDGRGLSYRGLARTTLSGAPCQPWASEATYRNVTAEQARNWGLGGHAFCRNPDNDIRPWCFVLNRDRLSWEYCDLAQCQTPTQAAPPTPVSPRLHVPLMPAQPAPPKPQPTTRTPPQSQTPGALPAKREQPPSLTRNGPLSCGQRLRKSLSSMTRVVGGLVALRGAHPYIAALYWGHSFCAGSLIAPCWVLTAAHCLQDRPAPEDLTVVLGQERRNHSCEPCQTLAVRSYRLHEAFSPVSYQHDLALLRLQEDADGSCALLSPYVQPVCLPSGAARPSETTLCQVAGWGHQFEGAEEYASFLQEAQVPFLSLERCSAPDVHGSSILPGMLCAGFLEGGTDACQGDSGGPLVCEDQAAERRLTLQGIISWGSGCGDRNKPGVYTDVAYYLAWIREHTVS
Type of test: functional.

The target of a further test is Cytochrome P450 2D6 (Homo sapiens, UniProt P10635).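 Also: CYP2D6 member of a cytochrome P450 panel assay.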
A further test has as its target Cytochrome P450 2C19 (Homo sapiens, UniProt P33261). In words: Cytochrome panel assay with activity outcomes. Panel member name: p450-cyp2c19 Compounds with AC50 equal or less than 10 uM are considered active. Format: functional. Conditions: read-out: AC50.
Test [7] is described as follows: cytotoxicity toward NIH3T3 fibroblasts, dose response, counter-screen, cell-based, ATP luminescence, mouse fibroblasts (AID 2010).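 Also: cells exposed to compound for about 90 hours before reading.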 Format: functional.
A short description of test [8]: inhibitors of intracellular T. cruzi replication, confirmation, NIH3T3 host cells, beta-gal luminescence (AID 2044).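 Also: intracellular parasites grown in NIH/3T3 mouse fibroblasts as host cells; luminescent beta-galactosidase reporter signal from transgenic T. cruzi replicating inside host cells; inhibitors lower the luminescence signal.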 Type of test: functional, cell-based.
Test [9] addresses T2, Short transient receptor potential channel 4 (Mus musculus, UniProt Q9QUQ5).
T2 sequence (Q9QUQ5 whole entry): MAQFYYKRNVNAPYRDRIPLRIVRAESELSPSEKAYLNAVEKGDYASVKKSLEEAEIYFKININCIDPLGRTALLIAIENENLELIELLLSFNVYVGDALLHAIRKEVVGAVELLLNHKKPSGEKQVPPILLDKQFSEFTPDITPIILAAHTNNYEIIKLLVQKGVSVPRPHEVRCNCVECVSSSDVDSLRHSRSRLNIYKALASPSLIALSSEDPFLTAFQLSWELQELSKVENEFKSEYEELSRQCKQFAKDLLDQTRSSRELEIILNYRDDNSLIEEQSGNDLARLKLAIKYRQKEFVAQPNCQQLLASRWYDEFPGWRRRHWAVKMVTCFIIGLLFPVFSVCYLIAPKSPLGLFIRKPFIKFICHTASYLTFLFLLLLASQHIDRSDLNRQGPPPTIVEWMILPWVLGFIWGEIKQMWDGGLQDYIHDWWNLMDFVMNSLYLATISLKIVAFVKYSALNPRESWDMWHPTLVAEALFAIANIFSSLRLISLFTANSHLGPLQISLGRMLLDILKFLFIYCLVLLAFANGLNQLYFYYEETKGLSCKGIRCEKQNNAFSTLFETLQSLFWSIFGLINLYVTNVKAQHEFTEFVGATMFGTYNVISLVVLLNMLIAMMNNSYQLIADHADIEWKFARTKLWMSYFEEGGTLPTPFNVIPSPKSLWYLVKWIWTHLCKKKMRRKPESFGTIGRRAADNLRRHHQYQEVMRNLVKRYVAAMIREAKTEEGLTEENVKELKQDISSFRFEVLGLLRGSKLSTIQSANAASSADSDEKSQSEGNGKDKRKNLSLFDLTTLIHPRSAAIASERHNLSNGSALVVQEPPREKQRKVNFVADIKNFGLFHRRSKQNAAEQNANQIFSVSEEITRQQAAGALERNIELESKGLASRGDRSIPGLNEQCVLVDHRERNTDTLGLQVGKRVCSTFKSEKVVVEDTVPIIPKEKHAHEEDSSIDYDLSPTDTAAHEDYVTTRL
Nature of the test: mouse TRPC4 channel inhibitors, dose response, cell-based, HEK293 TRPC4/mu-opioid, Fluo-4 calcium (AID 434942).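 Also: potency of inhibitors blocking the TRPC4 calcium response.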 Type of test: functional.

Test [10] is described as follows: Luminescence Cell-Based Dose Confirmation HTS to Identify Inhibitors of Platelet Dense Granule Release. [Related pubchem assays: 1663 (Primary HTS), 1678 (Summary of Project)]. Format: functional.
Another test concerns the target Large T antigen (Simian virus 40, UniProt P03070). Type of test: functional, Betapolyomavirus macacae.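 Also: Confirmatory-stage PubChem screen for compounds that inhibit SV40 T antigen.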
In test [11] the target is Luciferin 4-monooxygenase (Photinus pyralis, UniProt P08659). Nature of the test: firefly luciferase enzyme inhibitors, dose response, biochemical, luminescence (AID 1891).
A short description of test [12]: THP-1 cell cytotoxicity, dose response, cytotoxicity control for Vif-APOBEC3G degradation inhibitor project, THP-1 cells (AID 1117359). The settings on record: Human immunodeficiency virus 1, THP-1. Type of test: functional.
The target in test [13] is T3, Replicative DNA helicase DnaB (Mycobacterium tuberculosis, UniProt P9WMR3).
T3 sequence (P9WMR3 whole entry): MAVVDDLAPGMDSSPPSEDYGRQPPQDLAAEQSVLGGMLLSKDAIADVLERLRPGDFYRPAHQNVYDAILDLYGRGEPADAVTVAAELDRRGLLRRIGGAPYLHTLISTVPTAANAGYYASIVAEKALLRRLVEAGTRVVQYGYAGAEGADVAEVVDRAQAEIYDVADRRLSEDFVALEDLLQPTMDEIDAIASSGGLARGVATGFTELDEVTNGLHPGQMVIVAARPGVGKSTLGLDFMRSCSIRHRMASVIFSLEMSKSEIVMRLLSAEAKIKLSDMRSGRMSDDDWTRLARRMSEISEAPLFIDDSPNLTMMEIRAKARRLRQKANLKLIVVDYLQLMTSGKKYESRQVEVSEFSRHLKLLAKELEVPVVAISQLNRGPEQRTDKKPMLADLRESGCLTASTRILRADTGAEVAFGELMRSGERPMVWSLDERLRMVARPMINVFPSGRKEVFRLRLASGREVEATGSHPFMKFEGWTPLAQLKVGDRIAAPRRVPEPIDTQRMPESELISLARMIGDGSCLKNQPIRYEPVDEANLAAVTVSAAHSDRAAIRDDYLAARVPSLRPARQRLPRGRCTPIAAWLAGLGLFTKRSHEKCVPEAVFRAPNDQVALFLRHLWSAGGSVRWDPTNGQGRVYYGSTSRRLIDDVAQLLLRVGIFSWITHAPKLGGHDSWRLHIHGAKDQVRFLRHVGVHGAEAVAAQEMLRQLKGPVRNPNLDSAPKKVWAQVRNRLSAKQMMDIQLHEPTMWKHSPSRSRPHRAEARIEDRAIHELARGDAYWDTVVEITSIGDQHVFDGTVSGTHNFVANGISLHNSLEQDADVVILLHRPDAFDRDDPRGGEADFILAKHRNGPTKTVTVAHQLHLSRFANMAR
Nature of the test: DnaB intein splicing inhibitors, dose response, biochemical, cell-free fluorescence (AID 449749). Type of test: functional.

Another test has as its target T4, Protein RecA (Mycobacterium tuberculosis, UniProt P9WHJ3).
T4 sequence (P9WHJ3 whole entry): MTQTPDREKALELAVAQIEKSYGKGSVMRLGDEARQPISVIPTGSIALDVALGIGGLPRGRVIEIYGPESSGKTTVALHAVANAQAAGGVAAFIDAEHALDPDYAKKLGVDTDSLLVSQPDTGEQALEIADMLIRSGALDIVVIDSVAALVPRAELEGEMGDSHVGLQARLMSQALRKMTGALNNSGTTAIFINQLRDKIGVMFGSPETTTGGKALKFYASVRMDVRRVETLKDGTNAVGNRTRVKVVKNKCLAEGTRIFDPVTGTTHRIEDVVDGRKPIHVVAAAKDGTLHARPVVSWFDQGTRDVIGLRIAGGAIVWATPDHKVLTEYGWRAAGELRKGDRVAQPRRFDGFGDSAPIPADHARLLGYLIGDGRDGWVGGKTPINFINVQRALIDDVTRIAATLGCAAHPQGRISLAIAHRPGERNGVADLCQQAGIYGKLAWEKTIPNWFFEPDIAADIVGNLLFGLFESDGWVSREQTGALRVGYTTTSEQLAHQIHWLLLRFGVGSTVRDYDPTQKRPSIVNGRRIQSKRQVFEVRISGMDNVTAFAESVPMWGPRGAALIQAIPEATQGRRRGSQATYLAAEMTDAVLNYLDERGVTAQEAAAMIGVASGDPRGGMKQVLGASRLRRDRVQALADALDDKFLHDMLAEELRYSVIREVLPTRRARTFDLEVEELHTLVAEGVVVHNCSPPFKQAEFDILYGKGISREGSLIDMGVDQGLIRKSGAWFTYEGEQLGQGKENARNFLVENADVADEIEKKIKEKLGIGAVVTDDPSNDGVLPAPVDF
Nature of the test: Fluorescence Cell-Free Homogeneous Dose Retest to Identify Inhibitors of RecA-Intein Splicing Activity. [Related pubchem assays (depositor defined):AID2097, AID2223, AID489010, AID492950]. Format: functional.

Test [14] is described as follows: THP-1 cell cytotoxicity, dose response, cytotoxicity control for non-replicating M. tuberculosis project (AID 489025). Format: functional.
Another test in a line: cells. Type of test: functional.
Test [15] can be described thus: Vero E6 cell cytotoxicity, dose response, cytotoxicity control for non-replicating M. tuberculosis project, secondary assay (AID 492998). Format: functional, VeroE6. Conditions: Vero C1008.

The source made the active and inactive calls.

Chain of DNA dC->dU-editing enzyme APOBEC-3G (Q9HC16 whole entry): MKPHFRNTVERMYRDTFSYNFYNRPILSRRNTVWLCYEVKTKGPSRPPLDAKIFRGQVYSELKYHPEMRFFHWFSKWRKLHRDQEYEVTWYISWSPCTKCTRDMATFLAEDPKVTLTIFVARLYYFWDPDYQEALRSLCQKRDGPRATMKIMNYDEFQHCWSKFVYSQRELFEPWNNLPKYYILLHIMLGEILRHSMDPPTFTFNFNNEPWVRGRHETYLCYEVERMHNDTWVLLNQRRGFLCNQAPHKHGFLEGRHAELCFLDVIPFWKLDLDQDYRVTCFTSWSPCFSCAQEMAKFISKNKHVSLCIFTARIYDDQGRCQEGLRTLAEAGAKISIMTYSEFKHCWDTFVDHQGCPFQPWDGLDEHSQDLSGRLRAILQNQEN
Chain of Cytochrome P450 2C19 (P33261 whole entry): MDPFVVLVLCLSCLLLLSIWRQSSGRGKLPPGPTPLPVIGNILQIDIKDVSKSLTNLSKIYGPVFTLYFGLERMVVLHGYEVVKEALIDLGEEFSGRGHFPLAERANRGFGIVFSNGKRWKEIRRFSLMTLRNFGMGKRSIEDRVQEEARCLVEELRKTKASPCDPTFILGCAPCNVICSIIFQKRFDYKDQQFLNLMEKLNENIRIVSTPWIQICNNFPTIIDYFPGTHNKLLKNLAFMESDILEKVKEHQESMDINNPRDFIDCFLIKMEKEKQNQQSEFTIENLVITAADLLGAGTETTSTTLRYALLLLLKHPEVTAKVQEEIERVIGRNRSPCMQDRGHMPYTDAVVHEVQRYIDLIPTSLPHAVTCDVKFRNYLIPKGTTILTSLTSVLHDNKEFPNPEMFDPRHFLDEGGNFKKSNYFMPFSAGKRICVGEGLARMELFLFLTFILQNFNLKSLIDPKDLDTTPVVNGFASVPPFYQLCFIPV
Chain of Cytochrome P450 2D6 (P10635 whole entry): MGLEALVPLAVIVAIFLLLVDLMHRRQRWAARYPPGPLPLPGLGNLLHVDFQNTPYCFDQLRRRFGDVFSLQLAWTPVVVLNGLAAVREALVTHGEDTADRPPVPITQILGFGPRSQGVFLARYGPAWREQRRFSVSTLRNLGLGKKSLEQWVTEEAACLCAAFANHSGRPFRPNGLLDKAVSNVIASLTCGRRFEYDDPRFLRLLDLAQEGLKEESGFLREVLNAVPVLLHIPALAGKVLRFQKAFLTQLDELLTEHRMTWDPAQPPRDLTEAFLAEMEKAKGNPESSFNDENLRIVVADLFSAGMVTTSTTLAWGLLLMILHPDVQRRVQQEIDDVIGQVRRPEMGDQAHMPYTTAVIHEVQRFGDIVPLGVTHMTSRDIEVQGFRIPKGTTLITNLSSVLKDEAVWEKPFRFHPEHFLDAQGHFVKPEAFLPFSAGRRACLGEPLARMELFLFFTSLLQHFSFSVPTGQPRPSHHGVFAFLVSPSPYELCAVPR
Chain of Large T antigen (P03070 whole entry): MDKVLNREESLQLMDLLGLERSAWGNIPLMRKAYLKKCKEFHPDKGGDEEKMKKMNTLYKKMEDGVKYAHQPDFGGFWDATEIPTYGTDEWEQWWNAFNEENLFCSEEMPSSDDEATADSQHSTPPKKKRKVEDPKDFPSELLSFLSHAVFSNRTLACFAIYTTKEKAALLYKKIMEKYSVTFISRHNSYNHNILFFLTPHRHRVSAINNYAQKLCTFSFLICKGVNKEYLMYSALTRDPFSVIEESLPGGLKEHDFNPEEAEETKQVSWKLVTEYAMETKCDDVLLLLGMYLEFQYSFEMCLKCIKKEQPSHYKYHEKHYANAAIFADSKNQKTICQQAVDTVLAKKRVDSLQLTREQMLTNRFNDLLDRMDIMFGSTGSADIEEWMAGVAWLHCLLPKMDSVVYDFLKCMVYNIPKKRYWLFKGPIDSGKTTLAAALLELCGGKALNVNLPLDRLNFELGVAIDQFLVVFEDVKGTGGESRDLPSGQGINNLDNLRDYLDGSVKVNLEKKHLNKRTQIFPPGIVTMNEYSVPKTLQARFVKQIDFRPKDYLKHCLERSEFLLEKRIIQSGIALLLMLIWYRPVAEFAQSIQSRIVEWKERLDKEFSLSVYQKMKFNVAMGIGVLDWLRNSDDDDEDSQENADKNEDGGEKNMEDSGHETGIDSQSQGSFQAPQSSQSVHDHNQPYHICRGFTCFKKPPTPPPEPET
Chain of Estrogen receptor beta (Q92731 whole entry): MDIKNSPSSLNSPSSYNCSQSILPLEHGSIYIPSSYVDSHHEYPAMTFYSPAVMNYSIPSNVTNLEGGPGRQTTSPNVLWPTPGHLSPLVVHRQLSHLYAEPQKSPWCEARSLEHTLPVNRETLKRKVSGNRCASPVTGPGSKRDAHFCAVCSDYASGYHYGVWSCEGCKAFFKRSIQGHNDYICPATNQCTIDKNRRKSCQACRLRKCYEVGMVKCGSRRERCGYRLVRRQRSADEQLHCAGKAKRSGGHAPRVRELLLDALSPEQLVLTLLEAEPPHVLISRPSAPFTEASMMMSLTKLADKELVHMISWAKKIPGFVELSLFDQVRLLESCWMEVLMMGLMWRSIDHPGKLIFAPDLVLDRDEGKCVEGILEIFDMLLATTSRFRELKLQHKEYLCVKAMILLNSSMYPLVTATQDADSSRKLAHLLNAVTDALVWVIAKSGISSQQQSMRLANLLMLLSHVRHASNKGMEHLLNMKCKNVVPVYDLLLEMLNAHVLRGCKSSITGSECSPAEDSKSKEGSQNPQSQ
Chain of Luciferin 4-monooxygenase (P08659 whole entry): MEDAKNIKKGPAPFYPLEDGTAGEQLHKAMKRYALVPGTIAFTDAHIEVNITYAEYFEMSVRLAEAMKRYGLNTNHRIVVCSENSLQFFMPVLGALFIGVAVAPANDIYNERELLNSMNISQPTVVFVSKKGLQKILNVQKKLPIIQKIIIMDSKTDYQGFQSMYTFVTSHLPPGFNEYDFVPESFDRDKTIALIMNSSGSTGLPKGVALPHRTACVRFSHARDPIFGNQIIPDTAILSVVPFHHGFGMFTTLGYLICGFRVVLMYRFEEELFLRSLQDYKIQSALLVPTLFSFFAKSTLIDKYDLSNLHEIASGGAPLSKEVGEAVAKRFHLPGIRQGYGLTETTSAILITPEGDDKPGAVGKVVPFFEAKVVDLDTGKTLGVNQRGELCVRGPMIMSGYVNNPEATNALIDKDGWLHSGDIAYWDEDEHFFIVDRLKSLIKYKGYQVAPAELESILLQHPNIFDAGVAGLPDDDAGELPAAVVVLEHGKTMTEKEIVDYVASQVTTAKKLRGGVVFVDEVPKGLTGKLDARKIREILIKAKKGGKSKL
Chain of DNA dC->dU-editing enzyme APOBEC-3A (P31941 whole entry): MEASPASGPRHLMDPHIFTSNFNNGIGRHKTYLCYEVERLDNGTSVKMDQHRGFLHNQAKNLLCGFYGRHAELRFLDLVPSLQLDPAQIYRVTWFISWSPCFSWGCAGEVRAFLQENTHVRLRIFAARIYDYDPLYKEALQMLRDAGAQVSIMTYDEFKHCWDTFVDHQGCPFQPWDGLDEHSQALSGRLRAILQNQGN

Broadly, the EC50 is the midpoint of the concentration-response curve. Take `Cc1cccc(-n2c(O)nc3c(C(N)=O)nc(-c4ccccc4Cl)nc32)c1`: the EC50 in test [1] was 11.2 µM (active); in [2], 10.5 µM (active).

As usually defined, the IC50 is the concentration at which inhibition is half-maximal. Regarding `Cc1nn2c(-c3cccc(NC(=O)CSc4nc5ccccc5o4)c3)nnc2c2ccccc12`, the values for the EC50 in [3] and in test [4] were 7.73 µM (active) and 7.91 µM (active), respectively. Moreover, the IC50 on Estrogen receptor beta is > 50 µM (not active).

As for `S=c1[nH]nc(Cc2cccs2)n1-c1ccccc1`, the IC50 in test [5] was > 100 µM (inactive); in [6], 7.51 µM (active).

With `COC(=O)c1cccc(NS(=O)(=O)c2ccc(OC)c(OC)c2)c1C`, on Coagulation factor XII, the IC50 is > 50 µM (inactive).

Usually AC50 stands for the concentration giving half of the maximal activity seen. Consider `Cc1cccc(NC(S)=NC2CC3CCCC(C2)N3Cc2cccs2)c1` (configuration not stated), for which the values for the AC50 on Cytochrome P450 2D6 and at Cytochrome P450 2C19 were 3.98 µM (inconclusive) and 28.2 µM (inconclusive), respectively. Further, the concentration for a half-maximal effect (EC50) in [1] is 92.3 µM (active); in test [2] it was 65.3 µM (active).

Take `O=C(c1ccc(Cl)c([N+](=O)[O-])c1)N(Cc1ccc(Cl)cc1)C1CCS(=O)(=O)C1` (configuration not stated): the EC50 was 17.9 µM (active) in test [1] and 26.8 µM (active) in [2].

In the case of `O=c1n(Cc2ccc(Cl)cc2)c2sc3c(c2c2ncnn12)CCCC3`, the EC50 is 13.1 µM (active) in test [3] and 13.3 µM (active) in [4].

In the case of `OCCCCNCc1ccc(OCc2ccc(Cl)cc2Cl)cc1`, the EC50 in [1] was 9.83 µM (active); in test [2], 10.9 µM (active); in test [7] it was 17.3 µM (active); in test [8], 1.68 µM (active).

On to `COC(=O)CSc1nnc(-c2sc3cc(OC)ccc3c2Cl)n1C`, for which the EC50 in test [9] is 0.531 µM (active). For the same compound, at Coagulation factor XII, the IC50 was > 50 µM (inactive).

Take `COc1ccc(N2C(=O)C(Cl)=C(N3CCCC(C)C3)C2=O)cc1` (configuration not stated): the IC50 on Coagulation factor XII was > 50 µM (inactive).

Regarding `CCOc1cc(/C=N/NC(=O)N/N=C/c2ccc(O)c(OCC)c2)ccc1O`, the EC50 is 11.8 µM (active) in [10] and 1.2 µM (active) in test [11]. For the same compound, at Large T antigen, the IC50 was 4.27 µM (active).

As a reminder, the CC50 is the concentration giving 50% cytotoxicity. With `CC1=C/C(=N/c2c(C)n(C)n(-c3ccccc3)c2=O)C=CC1=O`, in test [12], the CC50 was > 40 µM (active). The AC50 in [13] was 29.5 µM (active). The half-maximal effective concentration (EC50) at Protein RecA is 14 µM (active).

Regarding `Cc1nn(-c2cccc(Cl)c2)c(O)c1/C=N/n1c(C)nc2ccccc2c1=O`, the CC50 in test [14] is 28.7 µM (active); in test [15] it was > 20 µM (active). For the same compound, the IC50 in “cells” was 45.1 µM (active).
